The text below walks through data of patent US10617674B2, “Dosage regimen for the treatment of acute exacerbations of inflammatory conditions” (MEREO BIOPHARMA 1 LIMITED, priority 2016, dated 2020).

Each structure is given as a SMILES string.

A short description of data set [1]: Oral bioavailability in the monkey. The conditions noted are these: in vivo, estimated.
Data set [2] in a line: Oral bioavailability in the rat. The conditions noted are these: in vivo, estimated.
A further data set addresses p38a (Homo sapiens, UniProt Q16539). The data set is described as follows: p38a kinase K (Ki) and IC50 values. Type of data set: biochemical.
The target of another data set is p3813 (Homo sapiens, UniProt Q15759). The data set is described as follows: p3813 kinase K (Ki) and IC50 values. Type of data set: biochemical.
Sequence of p3813 (Q15759 whole entry): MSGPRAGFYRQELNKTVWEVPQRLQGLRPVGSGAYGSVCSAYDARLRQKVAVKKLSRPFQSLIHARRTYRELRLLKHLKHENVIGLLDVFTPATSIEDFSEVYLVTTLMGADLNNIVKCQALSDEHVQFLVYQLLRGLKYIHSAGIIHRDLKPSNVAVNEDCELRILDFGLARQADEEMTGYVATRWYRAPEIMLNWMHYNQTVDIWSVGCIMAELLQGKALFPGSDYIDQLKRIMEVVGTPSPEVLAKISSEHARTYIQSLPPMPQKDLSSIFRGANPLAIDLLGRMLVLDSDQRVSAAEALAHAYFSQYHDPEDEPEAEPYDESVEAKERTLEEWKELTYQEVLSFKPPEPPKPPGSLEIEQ
Data set [3] can be described thus: Plasma protein binding, free fraction in human plasma samples. Type of data set: in vitro ADME.
Data set [4] is described as follows: PK profile of the Day 1, 3 and 5 oral dosing regimen (drug levels). Type of data set: in vivo, human. The text has this: This study investigated the efficacy, safety and tolerability of two different dosing regimens of 3-[5-amino-4-(3-cyanobenzoyl)-pyrazol-1-yl]-N-cyclopropyl-4-methyl benzamide added to SoC (systemic corticosteroids and/or antibiotics) versus placebo added to SoC in subjects with severe acute exacerbations of asthma. The proposed doses take into account trough levels based on PK modelling to ensure that the drug rapidly achieves and remains at effective concentrations between doses.
Overall, a dose-dependent reduction in TNF-α levels has been observed following doses ranging from 0.1 to 75 mg 3-[5-amino-4-(3-cyanobenzoyl)-pyrazol-1-yl]-N-cyclopropyl-4-methylbenzamide, although flattening of this effect to between 45 to 50% of placebo levels occurred between doses of 30 and 75 mg. A number of PK studies have been performed looking at both dosing intervals (Days 1, 3 and 5 (FIGS. 1-4, top panels) versus Days 1, 4 and 7 (FIGS. 1-4 bottom panels)), as well as dose levels (approximately 75/40/40 mg (FIG. 1); approximately 75/20/20 (FIG. 2); approximately 40/40/40 mg (FIG. 3); approximately 40/20/20 mg (FIG. 4), etc.). Based on exposures of the various regimens, there is limited benefit in dosing beyond Day 5 for a typical exacerbation.

For a further data set, the system named is p38a and p3813. In words: Estimated enzyme inhibition from drug levels relative to Ki and IC50. On the procedure: The concentration based on free fraction is at or above 740 nM for the duration of the dosing interval. Cmax is approximately 2 μM based on the first dose.
Data set [5] is described as follows: Oral bioavailability in the dog. The conditions noted are these: in vivo, estimated.

Sequence of p38a (Q16539 whole entry): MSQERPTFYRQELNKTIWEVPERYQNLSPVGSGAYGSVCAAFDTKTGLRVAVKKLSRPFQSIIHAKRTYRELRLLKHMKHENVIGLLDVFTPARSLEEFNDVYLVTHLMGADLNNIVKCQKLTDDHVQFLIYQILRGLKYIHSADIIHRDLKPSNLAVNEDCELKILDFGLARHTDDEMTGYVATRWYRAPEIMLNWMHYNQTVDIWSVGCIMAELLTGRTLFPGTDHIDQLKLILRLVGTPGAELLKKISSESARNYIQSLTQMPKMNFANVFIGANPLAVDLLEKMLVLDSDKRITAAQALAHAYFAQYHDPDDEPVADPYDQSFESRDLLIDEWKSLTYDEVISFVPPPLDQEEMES

As a reminder, the bioavailability is dose-corrected exposure relative to a reference, in per cent. The term IC50 denotes the point on the concentration scale where inhibition reaches its midpoint. What is called Ki is the dissociation constant of the complex between target and ligand, obtained from inhibition or displacement. Broadly, the fraction unbound is the share of the substance not bound to proteins or other matrix. The term Cmax denotes the maximum level reached in the sampled fluid or tissue. In the case of `Cc1ccc(C(=O)NC2CC2)cc1-n1ncc(C(=O)c2cccc(C#N)c2)c1N` [3-[5-amino-4-(3-cyanobenzoyl)-pyrazol-1-yl]-N-cyclopropyl-4-methylbenzamide], the bioavailability in data set [1] was 90%. Also, the bioavailability in data set [2] was 93%. On p38a, the IC50 is 37 nM and the inhibitory constant (Ki) worked out at 49 nM. At p3813, it took 106 nM to reach half-maximal inhibition (IC50) and the affinity, expressed as Ki, was 72 nM. The compound further came in with a fraction unbound in data set [3] of 0.13 to 0.25. Besides, in data set [4] (dosing at Day 1, 3 and 5), the drug levels maintained entry is reported as “above 220 ng/mL” and the plasma concentration turned out to be 5700 nM. Besides, the “concentration based on free fraction” value in data set [4] (for the duration of the dosing interval) was at least 740 nM. In data set [4] (human, plasma, oral, based on the first dose), this compound came in with a maximum concentration (Cmax) of around 2000 nM. In the data set with p38a and p3813, the “duration of >99% enzyme inhibition” value was 6 days and the enzyme inhibition is recorded as above 99%. In addition, the bioavailability in data set [5] was 87%.
